From US9861735B2, “Extracorporeal perfusion apparatus” (Fresenius Medical Care Deutschland GmbH, priority 2012, dated 2018)
“And” between values parts separate entries of the source, which are not always exact repeats. Identical values can stand only once.

What was measured:
[1] = test system: LPS (L-7018 Pseud. aerug.); experiment: PMB desorption over time: LPS inactivation by PMB-coated HPR10 in plasma (LAL test); format: biochemical, Pseudomonas aeruginosa; conditions: PMB-coated HPR10 carrier, 1% in LPS-spiked plasma (5 ng/ml), 37° C.
Method: The PMB solution (Sigma, 10 mg/ml in dist. water) is autoclaved at 121° C. for 30 min, and the carrier (HPR10) is then coated in 15 ml Greiner tubes with PMB as follows (see Table 10.2): 3 ml carrier with 7.5 ml PMB solution
The coating is carried out overnight on a roll mixer at room temperature. The coated carrier is then washed twice with 10 ml NaCl solution (sterile), and a 50% suspension is produced. A tube without adsorber was included as control.
The plasma with 5 IU heparin is spiked with 5 ng/ml LPS (L-7018 Pseud. aerug. company Sigma batch: 128K4115). In the triplicate approach, 1% PMB-coated carrier is incubated with the LPS-spiked plasma (30 μl carrier+2970 μl LPS spiked plasma) at 37° C. in an overhead shaker and samples were taken at intervals (5, 15 and 60 min) for LAL analysis.
The analysis was performed using an LAL test.

[2] = patient, specified example; cited from earlier work
[3] = test system: LPS Pseudomonas aeruginosa; experiment: Endotoxin batch (batch test I), LAL test, LPS from Pseudomonas aeruginosa in plasma; format: biochemical; conditions: for LAL EU/ml: plasma + 0.5 ng/ml LPS, incubation 60 min, 37° C.
Method: (§1) 9 blood-sampling tubes (each measuring 9 ml) spiked with 5 IU heparin are removed from a donor. The plasma is centrifuged off and the cell pellet incubated on a roll mixer. The plasma is spiked with endotoxin (LPS) and used for batch test I:
LPS: Pseudomonas aeruginosa (L-7018 company Sigma batch: 128K4115, −70° C., at 100 μl 10−3 g/ml (1 mg/ml))
(§2) The LPS is used in the batch with a final concentration 0.5 ng/ml. The tests are carried out in 3 ml pyrogen-free glass vials. In batch test I, different PMB concentrations (company. Sigma, P-1004) are added in the duplicate approach and are incubated for 60 min on an overhead shaker at 37° C. (see Table 3.5).
(§3) In batch test 1, PMB concentrations with 0 (without PMB), 10, 100, 250, 500 and 1000 ng/ml are used. Sterile PMB solutions (autoclaved pyrogen-free at 121° C., 90 min) are produced for this purpose with the following concentrations (Table 3.3):
(§4) The endotoxins are measured in the form of EU/ml with the aid of a Limulus Amebocyte Lysate test (LAL) by Charles River.

blood cells = experiment: Cytokine batch (batch test II): cytokine distribution by blood cells; format: cell-based; conditions: LPS (E. coli)-spiked plasma, 4 hours incubation
Method: The plasma spiked with LPS and PMB is fed back following batch test 1 to the cell concentrate obtained from the blood donor in the ratio 1:1 (see Table 3.5). For the cytokine batch, the samples from batch test I were used with a PMB concentration of 0 (without PMB), 250, 500 and 1000 ng/ml. As control, a sample without LPS and with 1000 ng/ml PMB was included. Following the incubation times of 4 h and 12 h at 37° C. on a roll mixer (5 revolutions/min), samples were taken, centrifuged off and 50 μl plasma were frozen at −80° C. for the subsequent cytokine quantification.

[4] = PMB clearance (dialyser, depletion agent, patient) for dosing calculation; conditions: specified example
Source text: The following calculation example, besides the PMB patient clearance, also takes into consideration the clearance of a dialyser (dialysis filter) arranged in the extracorporeal blood circuit and the clearance of the carrier of the depletion agent. The calculation example presupposes an existing PMB serum concentration. This is provided by administration of a bolus prior to the start of the treatment, wherein the injection solutions described under Example 4 can be used for this purpose.
For the calculation of the dosing of polymyxin B via infusion in the extracorporeal blood circuit at a lipid feed point, the PMB clearance of the patient body, of the dialyser and of the depletion agent are taken into consideration: • The PMB dialysis clearance (CDial) can be determined experimentally and is dependent on the plasma flow and also on the dialysis filter type used. In the specified example, this is 60 ml/min. • The PMB clearance of the depletion agent (Cads) is dependent on the carrier material used and also on the filtrate flow.
The PMB total clearance (Ctotal) is given by addition from the individual PMB clearance rates. The resultant decrease of PMB is illustrated in FIG. 16. […]

LPS E. coli = experiment: Endotoxin batch (batch test I), LAL test, LPS from E. coli in plasma; format: biochemical; conditions: for LAL EU/ml: plasma + 0.5 ng/ml LPS, incubation 60 min, 37° C.
Method: as §1, §2, §3, §4

[5] = offset at least in part by the necessary higher dosing; cited from earlier work
[6] = PMB concentration in the plasma 50 to 300 ng/ml (0.05 to 0.3 μg/ml)

Row | Substance | LPS inactivation after 5 minutes compared with after 60 minutes of incubation [1] | half-life for PMB [2] [h] | LAL EU/ml ([3]; PMB 10 ng/ml) | LAL EU/ml ([3]; PMB 100 ng/ml) | LAL EU/ml ([3]; PMB 250 ng/ml) | LAL EU/ml ([3]; PMB 500 ng/ml) | LAL EU/ml ([3]; PMB 1000 ng/ml) | inhibition of LPS from Pseudomonas aeruginosa [3, 6] | inhibition of the cytokine distribution (TNF-alpha, IL-1beta, IL-6, IL-8) (blood cells; very low PMB concentrations (250, 500, 1000 ng/ml)) | inhibition of the key mediator TNF-alpha (blood cells; very low PMB concentrations) | PMB clearance of the depletion agent (Cads) ([4]; dependent on carrier material and filtrate flow) [mL/min] | PMB dialysis clearance (CDial) ([4]; dependent on plasma flow and dialysis filter type) [mL/min] | LAL EU/ml (LPS E. coli; PMB 10 ng/ml) | LAL EU/ml (LPS E. coli; PMB 100 ng/ml) | LAL EU/ml (LPS E. coli; PMB 250 ng/ml) | LAL EU/ml (LPS E. coli; PMB 500 ng/ml) [EU/ml] | LAL EU/ml (LPS E. coli; PMB 1000 ng/ml) | inhibition of LPS from E. coli (LPS E. coli; [6]) | nephrotoxicity comparison (in words) [5]
1 | polymyxin B [PMB] | almost the same | 13.6 | 0.178 EU/ml and 0.167 EU/ml | 0.112 EU/ml and 0.137 EU/ml | 0.108 EU/ml and 0.123 EU/ml | 0.091 EU/ml and 0.081 EU/ml | 0.062 EU/ml and 0.061 EU/ml | strong inhibition | strong inhibition | particularly pronounced | 45 | 60 | 0.77 EU/ml and 0.871 EU/ml | 0.379 EU/ml and 0.382 EU/ml | 0.281 EU/ml and 0.29 EU/ml | 0.209 | 0.154 EU/ml and 0.16 EU/ml | strong inhibition | –
2 | Colistin | – | – | – | – | – | – | – | – | – | – | – | – | – | – | – | – | – | – | less nephrotoxic than polymyxin B
